Measured values taken from the supplement of paper PMC7023306.
± gives the uncertainty stated by the source.

Assay: TIMS collision cross section in N2 (TIMS CCS N2); higher = larger gas-phase ion size
Conditions: drift gas: N2 (99.4% N2, 0.6% O2), calibration: Stow et al. 2017 values for Agilent ESI-L Low Concentration Tune Mix, ionization: negative ESI
Experimental: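 Authentic plant natural product standards (10-50 ppm in 80% methanol) were analysed by UHPLC (BEH C18, 60 °C) coupled to a Bruker timsTOF Pro in negative ESI with N2 drift gas. TIMS collision cross sections were computed from mobility peak apices after calibration with Agilent Tune Mix using Stow et al. reference values. Values are the average of triplicate runs on different days, reported per annotated ion species (deprotonated ion, adducts, dimer, oxidized ion).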

Row | Compound | TIMS collision cross section in N2 (ion species: [M-H]-) [Å²] | also measured
1 | COc1cc2c(=O)c(-c3ccc(O)cc3)coc2cc1O [Glycitein] | 166.87 ± 0.13 | TIMS collision cross section in N2 (ion species: [M-H+Na+HCO2H]-): 184.69 ± 0.23 Å²
2 | CC1(C)[C@@H](O[C@H]2O[C@H](C(=O)O)[C@@H](O)[C@H](O)[C@H]2O[C@@H]2O[C@H](C(=O)O)[C@@H](O)[C@H](O)[C@H]2O)CC[C@]2(C)[C@H]3C(=O)C=C4[C@@H]5C[C@@](C)(C(=O)O)CC[C@]5(C)CC[C@@]4(C)[C@]3(C)CC[C@@H]12 [Glycyrrhizic acid] | 279.43 ± 0.38 | –
3 | CC1(C)CC[C@]2(C(=O)O)CC[C@]3(C)C(=CC[C@@H]4[C@@]5(C)CC[C@H](O)[C@@](C)(CO)[C@@H]5CC[C@]43C)[C@@H]2C1 [Hederagenin] | 222.47 ± 0.52 | TIMS collision cross section in N2 (ion species: [M-H+Na+HCO2H]-): 234.04 ± 0.57 Å²
4 | CCCCCCCCCCCCCCCCC(=O)O [Heptadecanoic acid] | 174.45 ± 0.021 | TIMS collision cross section in N2 (ion species: [2M-H]-): 259.04 ± 0.54 Å²
5 | COc1ccc([C@@H]2CC(=O)c3c(O)cc(O)cc3O2)cc1O [Hesperetin] | 172.79 ± 0.23 | TIMS collision cross section in N2 (ion species: [2M-H]-): 219.76 ± 0.28 Å²
6 | COc1c(O)cc2oc(-c3ccc(O)cc3)cc(=O)c2c1O [Hispidulin] | 165.52 ± 0.17 | –
7 | COc1cc([C@@H]2CC(=O)c3c(O)cc(O)cc3O2)ccc1O [Homoeriodictyol] | 168.62 ± 0.075 | TIMS collision cross section in N2 (ion species: [M-H+Na+HCO2H]-): 188.05 ± 0.04 Å²
8 | CC(C)=CCC1C(=O)C(C(=O)CC(C)C)=C(O)C(O)(CC=C(C)C)C1=O (stereo unspecified) [Humulone] | 188.57 ± 0.35 | –
9 | COc1ccc(-c2cc(=O)c3c(O)c(OC)c(O)c(OC)c3o2)cc1OC [Hymenoxin] | 190.48 ± 0.09 | TIMS collision cross section in N2 (ion species: [M-H+Na+HCO2H]-): 207.1 ± 0.28 Å²
10 | COc1ccc(-c2oc3c(CC=C(C)C)c(O[C@@H]4O[C@H](CO)[C@@H](O)[C@H](O)[C@H]4O)cc(O)c3c(=O)c2O[C@@H]2O[C@@H](C)[C@H](O)[C@@H](O)[C@H]2O)cc1 [Icariin] | – | TIMS collision cross section in N2 (ion species: [M-H+HCO2H]-): 256.3 ± 1.1 Å²
11 | CC(C)=CCC(=O)C1(O)C(O)=C(C(=O)CC(C)C)C(=O)C1CC=C(C)C (stereo unspecified) [Isohumulone] | 187.14 ± 0.21 | –
12 | C[C@@H]1O[C@@H](OC[C@H]2O[C@@H](Oc3cc(O)c4c(=O)cc(-c5ccc(O)cc5)oc4c3)[C@H](O)[C@@H](O)[C@@H]2O)[C@H](O)[C@H](O)[C@H]1O [Isorhoifolin] | 231.11 ± 0.1 | TIMS collision cross section in N2 (ion species: [M-H+Na+HCO2H]-): 237.1 ± 0.28 Å²
13 | COc1ccc([C@@H]2CC(=O)c3c(O)cc(O[C@@H]4O[C@H](CO)[C@@H](O)[C@H](O)[C@H]4O)cc3O2)cc1 [Isosakuranin] | 217.58 ± 0.11 | TIMS collision cross section in N2 (ion species: [M-H+HCO2H]-): 213.68 ± 0.13 Å²
14 | COc1ccc(-c2oc3cc(O)cc(O)c3c(=O)c2O)cc1 [Kaempferide] | 167.04 ± 0.26 | –
15 | O=c1c(O)c(-c2ccc(O)cc2)oc2cc(O)cc(O)c12 [Kaempferol] | 161.08 ± 0.12 | TIMS collision cross section in N2 (ion species: [2M-H]-): 234.8 ± 0.14 Å²
16 | O=C1C[C@@H](c2ccc(O)cc2)Oc2cc(O)ccc21 [Liquiritigenin] | 159.28 ± 0.075 | TIMS collision cross section in N2 (ion species: [2M-H]-): 202.54 ± 0.082 Å²
17 | CC(C)=CCC1=C(O)C(C(=O)CC(C)C)=C(O)C(CC=C(C)C)(CC=C(C)C)C1=O [Lupulone] | 201.76 ± 0.7 | –
18 | O=c1cc(-c2ccc(O)c(O[C@@H]3OC(CO)[C@@H](O)[C@@H](O)C3O)c2)oc2cc(O[C@@H]3OC(CO)[C@@H](O)[C@@H](O)C3O)cc(O)c12 (stereo partly specified) [Luteolin-7,3'-di-O-glucoside] | 236.98 ± 0.087 | –
19 | O=c1cc(-c2ccc(O)c(O)c2)oc2cc(O)cc(O)c12 [Luteolin] | 160.69 ± 0.18 | TIMS collision cross section in N2 (ion species: [2M-H]-): 234.87 ± 0.19 Å²
20 | C[C@H]1[C@H](C)CC[C@]2(C(=O)O)CC[C@]3(C)C(=CC[C@@H]4[C@@]5(C)C[C@@H](O)[C@H](O)[C@@](C)(CO)[C@@H]5[C@H](O)C[C@]43C)[C@H]12 [Madecassic acid] | 223.91 ± 0.25 | –
21 | CCCCCCCCCCCCCC(=O)O [Myristic acid] | 162.69 ± 0.1 | –
22 | O=C1C[C@@H](c2ccc(O)cc2)Oc2cc(O)cc(O)c21 [Naringenin] | 163.01 ± 0.16 | –

Row | Compound | TIMS collision cross section in N2 (ion species: [M-H]-) [Å²] | also measured
23 | C[C@@H]1O[C@@H](O[C@H]2[C@H](Oc3cc(O)c4c(c3)O[C@H](c3ccc(O)cc3)CC4=O)O[C@H](CO)[C@@H](O)[C@@H]2O)[C@H](O)[C@H](O)[C@H]1O [Naringin] | 215.92 ± 0.17 | TIMS collision cross section in N2 (ion species: [M-H+Na+HCO2H]-): 220.79 ± 0.26 Å²
24 | COc1ccc([C@@H]2CC(=O)c3c(O)cc(O[C@@H]4O[C@H](CO)[C@@H](O)[C@H](O)[C@H]4O[C@@H]4O[C@@H](C)[C@H](O)[C@@H](O)[C@H]4O)cc3O2)cc1O [Neohesperidin] | 226.82 ± 0.1 | –
25 | COc1ccc(-c2coc3cc(O[C@@H]4O[C@H](CO)[C@@H](O)[C@H](O)[C@H]4O)ccc3c2=O)cc1 [Ononin (Formononetin 7-O-glucoside)] | – | TIMS collision cross section in N2 (ion species: [M-H+HCO2H]-): 223.35 ± 0.14 Å²
26 | CCCCCCCCCCCCCCCC(=O)O [Palmitic acid] | 170.37 ± 0.16 | –
27 | CCCCCCCCCCCCCCC(=O)O [Pentadecanoic acid] | 166.43 ± 0.15 | –
28 | COc1ccc(-c2cc(=O)c3ccc(O)cc3o2)cc1 [Pratol] | – | TIMS collision cross section in N2 (ion species: [2M-H]-): 234 ± 0.056 Å²
29 | COc1cc(O)c2c(=O)c(-c3ccc(O)cc3)coc2c1 [Prunetin] | 167.78 ± 0.0071 | TIMS collision cross section in N2 (ion species: [2M-H]-): 264.09 ± 0.09 Å²
30 | C[C@H]1[C@H](C)CC[C@]2(C(=O)O)CC[C@]3(C)C(=CC[C@@H]4[C@@]5(C)C[C@@H](O)[C@@H](O)C(C)(C)[C@@H]5CC[C@]43C)[C@H]12 [Pygenic acid A] | 220.9 ± 0.38 | –
31 | C[C@H]1[C@H](C)CC[C@]2(C(=O)O)CC[C@]3(C)C(=CC[C@@H]4[C@@]5(C)C[C@@H](O)[C@@H](O)[C@](C)(CO)[C@@H]5CC[C@]43C)[C@H]12 [Pygenic acid B] | 225.46 ± 0.32 | –
32 | C[C@@H]1O[C@@H](Oc2c(-c3ccc(O)c(O)c3)oc3cc(O)cc(O)c3c2=O)[C@H](O)[C@H](O)[C@H]1O [Quercitrin] | 195.84 ± 0.038 | TIMS collision cross section in N2 (ion species: [M-H+Na+HCO2H]-): 205.52 ± 0.42 Å²
33 | Oc1ccc(/C=C/c2cc(O)cc(O)c2)cc1 [Resveratrol] | 157.41 ± 0.0058 | –
34 | C[C@@H]1O[C@@H](O[C@H]2[C@H](Oc3cc(O)c4c(=O)cc(-c5ccc(O)cc5)oc4c3)O[C@H](CO)[C@@H](O)[C@@H]2O)[C@H](O)[C@H](O)[C@H]1O [Rhoifolin] | 225.59 ± 0.085 | TIMS collision cross section in N2 (ion species: [M-H+Na+HCO2H]-): 229.74 ± 2.3 Å²
35 | C[C@@H]1O[C@@H](OC[C@H]2O[C@@H](Oc3c(-c4ccc(O)c(O)c4)oc4cc(O)cc(O)c4c3=O)[C@H](O)[C@@H](O)[C@@H]2O)[C@H](O)[C@H](O)[C@H]1O [Rutin] | 231.06 ± 0.2 | TIMS collision cross section in N2 (ion species: [M-3H]-): 219.55 ± 0.41 Å²
36 | O=C(N[C@@H](CSCc1ccccc1)C(=O)O)OCc1ccccc1 [S-Benzyl-N-carbobenzyloxy-L-cysteine] | 264.84 ± 0.64 | –
37 | O=C(O)[C@H]1O[C@@H](Oc2cc3oc(-c4ccc(O)cc4)cc(=O)c3c(O)c2O)[C@H](O)[C@@H](O)[C@@H]1O [Scutellarein-7-glucuronide] | – | TIMS collision cross section in N2 (ion species: [M-3H]-): 202.76 ± 0.54 Å²
38 | O=c1cc(-c2ccc(O)cc2)oc2cc(O)c(O)c(O)c12 [Scutellarein] | 159.52 ± 0.35 | TIMS collision cross section in N2 (ion species: [M-3H]-): 156.37 ± 0.57 Å²
39 | COc1cc(C=CC(=O)O)cc(OC)c1O [Sinapic acid] | 148.27 ± 0.07 | –
40 | COc1cc2oc(-c3ccc(O)cc3)cc(=O)c2c(O)c1O [Sorbifolin] | 166.28 ± 0.23 | –
41 | CCCCCCCCCCCCCCCCCC(=O)O [Stearic acid] | 178.54 ± 0.015 | –
42 | O=C(/C=C/c1ccc(O)cc1)OC[C@H]1O[C@@H](Oc2c(-c3ccc(O)cc3)oc3cc(O)cc(O)c3c2=O)[C@H](O)[C@@H](O)[C@@H]1O [Tiliroside] | 217.09 ± 0.061 | –
43 | C[C@H]1[C@H](C)CC[C@]2(C(=O)O)CC[C@]3(C)C(=CC[C@@H]4[C@@]5(C)CC[C@H](O)C(C)(C)[C@@H]5CC[C@]43C)[C@H]12 [Ursolic acid] | 218.03 ± 0.74 | TIMS collision cross section in N2 (ion species: [M-H+Na+HCO2H]-): 229.46 ± 0.98 Å²
